# According to patent US11548875B2, “Inhibitor compounds for male contraception” (University of Washington, priority 2018, dated 2023):
# “Also recorded” adds a separate entry of the source.
# Key:
# [1] = tested on: New Zealand white rabbits; assay: Oral WIN 18,446 in rabbits: ejaculated sperm, testicular retinoic acid, serum testosterone; assay type: in vivo, rabbit
# Source text: In 2011, it was discovered that WIN 18,446 suppresses spermatogenesis by inhibiting testicular retinoic acid biosynthesis.
# All animals were azoospermic between week 16 of treatment and week 8 of recovery. Animals underwent a hemi-orchiectomy at the end of treatment, which accounts for the 50% reduction in sperm output at the end of recovery. *p<0.05 compared with baseline.
# FIG. 1C compares testicular tissue retinoic acid concentration (pmol/g of tissue) in New Zealand white rabbits treated with 200 mg/kg WIN 18,446 daily, orally over time (N=4/group). […] All values are means±SEM. *p<0.05 compared with placebo, **p<0.01.
# men = conditions: cited from earlier work
compound,measurement,setting,value
"O=C(NCCCCCCCCNC(=O)C(Cl)Cl)C(Cl)Cl [WIN 18,446]",testicular tissue retinoic acid concentration,"[1]; 200 mg/kg daily, orally over time",reduction in intra-testicular retinoic acid
same,ejaculated sperm concentrations,"[1]; 200 mg/kg orally for 16 weeks, 200 mg/kg",reversible azoospermia; also recorded: azoospermic
same,sperm concentration,"men; at least sixty men, up to one year",below 1 million sperm/ml of ejaculate
same,adverse reaction with alcohol,"men; men, when they drank alcohol",disulfiram reaction
